Results from patent US12644100B2, “Methods for treating metabolic disorders by targeting ADCY5” (THE BROAD INSTITUTE, INC., priority 2019, dated 2026).

Tested on: primary differentiating osteoblasts
Experiment: Osteoblast differentiation assay (ALP activity) in primary differentiating osteoblasts treated with etomoxir
Format: cell-based, human
Details: 100 μM etomoxir between day 2 and day 5 of differentiation
Protocol: FIG. 9A-9E—3q21.1 haplotype affects lipid oxidation in adipocytes and osteoblasts. (9A) Osteoblast alkaline phosphatase (ALP) activity in primary differentiating osteoblasts treated with 100 μM etomoxir (carnitine palmitoyltransferase 1 antagonist) or negative control. Assays were performed in cells from 18 heterozygous individuals (haplotypes 1/2) and 23 homozygous individuals (haplotypes 1/1) and differentiating osteoblasts were treated between day 2 and day 5 of differentiation. (9B) Oxidation of [14C]palmitate (0.5 mM) to 14CO2 in primary differentiating osteoblasts treated with 100 μM etomoxir (carnitine palmitoyltransferase 1 antagonist) or negative control. […] Seahorse XF24 Flux analyzer was performed at each time point and contribution of ATP generation was calculated from glycolysis vs. oxidative phosphorylation. […] Isogenic lines were differentiated to osteoblasts after undergoing clonal expansion, and marker gene expression for osteoblast differentiation was measured by qPCR. […] Isogenic lines were differentiated to adipocytes after undergoing clonal expansion, and catecholamine-stimulated lipolysis was measured. […]
Culture and differentiation of primary human AMSCs. […] Additionally, small quantities of the original liposuction material would be aliquoted into T-25 flasks at a 1:1 ratio of fat to medium as controls to check for contamination. […]

For `CCOC(=O)[C@@]1(CCCCCCOc2ccc(Cl)cc2)CO1` [etomoxir], the “osteoblast differentiation (ALP activity)” value (haplotype 1 homozygotes (n=23), p-value=0.005) was “dramatic reduction in osteoblast differentiation” and the “osteoblast differentiation (ALP activity)” value (heterozygotes haplotypes 1/2 (n=18)) was “no effect”.
